Values joined by “and” are separate entries in the source; they are usually repeats but may differ in a detail not shown here. Equal entries are not always repeated.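 Grown in 96-well plates, cells were treated for 48 hours with each compound at five concentrations. Insufficient inhibition: endpoint recorded as highest concentration tested. Abbreviation: GI50, concentration required for 50% inhibition of growth. The concentration for full growth arrest is given as TGI.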 Some results are limits rather than exact numbers.

In PubChem BioAssay (NCI) one finds GI50 and TGI data, which are given here for 9 compounds.

Experiment in all cases: NCI-60 cell line screen, 48 h
For assay [1], the system named is UACC-257 melanoma.
Assay [2] has as its system HOP-62 NSCLC.
For assay [3], the system named is SK-OV-3 ovarian.
The test system of assay [4] is TK-10 renal.
Assay [5] deals with HL-60(TB) leukemia.
Assay [6] has as its system CCRF-CEM leukemia.
The subject of assay [7] is M14 melanoma.
For assay [8], the system named is SF-268 CNS.
For assay [9], the system named is A549 NSCLC.
For assay [10], the system named is KM12 colon.

On to `CC[n+]1c(-c2ccccc2)c2cc(N)ccc2c2ccc(N)cc21`, for which the GI50 in assay [1] is 1.22 µM; in [2] it was 0.863 µM and 7.4 µM and 2.38 µM; in assay [3], 2.19 µM; in [4] it was 2.38 µM; in assay [6], 2.15 µM and 1.2 µM and 4.94 µM; in assay [7], 3.84 µM. For the same compound, the GI50 in assay [8] is 0.281 µM and 0.589 µM and 1.26 µM; in assay [9], 2.17 µM; in assay [10], 1.02 µM. The TGI in [1] is 4.8 µM and 10 µM and 6.4 µM; in [3], 23.5 µM and 25.6 µM; in [4] it was 19.7 µM and 68.8 µM; in [5], 18 µM and 26.9 µM and 47.6 µM; in [6], 77 µM and 33 µM and 48.3 µM; in [7], 16.6 µM and 44.5 µM. Further, the TGI in assay [8] is 2.44 µM and 11.9 µM and 16.9 µM; in assay [9], 48.3 µM and 76.7 µM and > 95.1 µM; in [10], 4.68 µM and 15 µM and 21.9 µM.
`CCOC1c2nc3ccccc3nc2-c2ccccc2N1C(C)=O` (stereo not given): the TGI in [1], in [2], in assay [3], in assay [5], in [6] and in assay [7] was over 100 µM each time. The TGI in assay [9] and in assay [10] was over 100 µM each time.
Take `O=C1Nc2ccc(-c3cccnc3)cc2/C1=C/c1cc(Br)c(O)c(Br)c1`: the GI50 is 4.07 µM in assay [1]; 8.43 µM in assay [2]; 8.11 µM in assay [3]; 7.82 µM in assay [4]; 6.97 µM in [5]; 5.43 µM in [6]. In addition, the GI50 in assay [7] was 4.45 µM; in assay [8] it was 7.71 µM; in assay [9], 8.05 µM; in assay [10] it was 6.59 µM. The TGI in [1] was 9.36 µM; in assay [2] it was over 25 µM; in assay [3], 24.9 µM; in assay [4], 24.3 µM; in [5], over 22.1 µM; in assay [6], over 25 µM. Also, the TGI in assay [7] is over 21.9 µM; in [8], over 25 µM; in [9], over 25 µM; in assay [10], 24.8 µM.
For `CCN(CC)CCCC(Nc1c2ccc(Cl)cc2nc2ccc(OC)cc12)c1ccc(Cl)cc1` (stereo not given), the GI50 in assay [1] was 1.68 µM; in assay [2] it was 1.61 µM; in [3], 2.05 µM; in [4], 1.62 µM; in assay [5], 1.48 µM; in assay [6], 0.53 µM. Also, the GI50 is 0.199 µM in [7], 1.43 µM in assay [8], 1.52 µM in [9] and 1.52 µM in [10]. Also, the TGI in assay [1] amounted to 3.22 µM; in assay [2] it was 3.14 µM; in assay [3], 3.89 µM; in assay [4], 3.14 µM; in [5], 3.23 µM; in [6], 2.07 µM. The TGI in assay [7] is 0.411 µM; in assay [8], 3.05 µM; in assay [9] it was 3.05 µM; in assay [10], 2.99 µM.
Turning to `CC(C)(C)O/N=C/c1cc(NC(=S)c2ccccc2)ccc1Cl`, the TGI in [1] is 31 µM; in assay [2] it was 37.1 µM; in [3], over 100 µM; in assay [4], 31.1 µM; in assay [5], 42.6 µM; in assay [6], 74.5 µM. Further, the TGI in [7] was 54.1 µM; in assay [8] it was 58.5 µM; in assay [9] it was 35.1 µM; in assay [10], 25.7 µM.
Consider `O=C1c2cccc3c(N4CCOCC4)ccc(c23)C(=O)N1CCN1CCN(CCCCCN2CCN(CCN3C(=O)c4cccc5c(N6CCOCC6)ccc(c45)C3=O)CC2)CC1`, for which the GI50 is 74 µM in assay [1]; 52.3 µM in assay [2]; over 100 µM in [3]; over 100 µM in [4]; 33.7 µM in assay [5]; 32.9 µM in [6]. The GI50 in assay [7], in assay [8] and in [9] was over 100 µM throughout. In addition, the TGI in assay [1], in assay [2], in assay [3], in assay [4], in assay [5] and in assay [6] was over 100 µM throughout. In addition, the TGI in assay [7], in [8] and in [9] was over 100 µM each time.
In the case of `Nc1nc(-c2ccccc2)c(CC(=O)O)s1`, the TGI in [1] was over 100 µM; in assay [2], over 100 µM; in assay [3] it was over 100 µM; in [4], over 100 µM; in assay [5], 83.1 µM; in assay [7], over 100 µM. The TGI in [8], in assay [9] and in assay [10] was over 100 µM each time.
Take `CN(C)C1C(=O)C(C(N)=O)=C(O)C2(O)C(=O)C3=C(O)c4c(O)cccc4C(C)(O)C3CC12.[Cl][Sb]([Cl])[Cl]` (stereo not given): the GI50 in assay [1] was 3.12 µM; in [2] it was 4.66 µM; in assay [3], 3.79 µM; in assay [4], 3.85 µM; in assay [5] it was 4.01 µM; in assay [6], 2.39 µM. In addition, the GI50 in assay [7] is 3.82 µM; in [9] it was 3.47 µM; in [10] it was 3.7 µM. Further, the TGI in assay [1] was determined as 11.8 µM; in assay [2] it was 15.5 µM; in assay [3], 14 µM; in assay [4], 14.3 µM; in assay [5] it was 9.9 µM; in assay [6], 11.2 µM. The TGI in assay [7] is 16.6 µM; in assay [9], 13.8 µM; in [10] it was 13.2 µM.
Take `CCc1c(OC(C)=O)c2c(NC3OC(COC(C)=O)C(OC(C)=O)C(OC(C)=O)C3OC(C)=O)nc(SC)nc2oc1=O` (stereo not given): the TGI in [1], in assay [2], in assay [3], in assay [4], in assay [5] and in assay [6] was over 100 µM each time. The TGI in [7], in assay [9] and in [10] was over 100 µM throughout.
